Assay results published in ChEMBL document CHEMBL4673228, “Futunamine, a Pyrrole-Imidazole Alkaloid from the Sponge Stylissa aff. carteri Collected off the Futuna Islands” (J Nat Prod, 2020).
Active and inactive are the calls of the source. No cut-off for these calls is given here.

What was measured:
BV-2 [1] = assay: Inhibition of LPS-induced NO production in mouse BV-2 cells at 0.1 to 1 uM preincubated for 1 hrs followed by LPS-stimulation and measured after 24 hrs by Griess reagent based spectrophotometric assay; assay type: functional, cell-based; conditions: dose 0.1-1 µM
SH-SY5Y [2] = assay: Neuroprotective activity against TBHP-induced human SH-SY5Y cells assessed as decrease in ROS production at 1 uM after 6 hrs by DCFH-DA dye based spectrophotometric assay relative to control; assay type: functional; parameters: scale not given: the % may be the effect or the level left
SH-SY5Y [3] = assay: Neuroprotective activity against TBHP-induced cytotoxicity in human SH-SY5Y cells assessed as increase in cell viability at 0.001 uM after 6 hrs by MTT assay; assay type: functional, cell-based
BV-2 [4] = assay: Cytotoxicity against mouse BV-2 cells assessed as reduction in cell viability at 0.001 to 10 uM after 24 hrs by MTT assay; assay type: cell-based; conditions: bv-2, 24 h, dose 0.001-10 µM
SH-SY5Y [5] = assay: Cytotoxicity against human SH-SY5Y cells assessed as reduction in cell viability at 0.001 to 10 uM after 24 hrs by MTT assay; assay type: cell-based; conditions: dose 0.001-10 µM
SH-SY5Y [6] = assay: Neuroprotective activity against TBHP-induced human SH-SY5Y cells assessed as decrease in ROS production at 0.001 to 10 uM after 6 hrs by DCFH-DA dye based spectrophotometric assay relative to control; assay type: functional; parameters: scale not given: the % may be the effect or the level left; conditions: dose 0.001-10 µM
SH-SY5Y [7] = assay: Neuroprotective activity against TBHP-induced cytotoxicity in human SH-SY5Y cells assessed as increase in cell viability at 10 uM after 6 hrs by MTT assay; assay type: functional, cell-based

| SMILES | inhibition (BV-2 [1]) | Activity (SH-SY5Y [2]) | Activity (SH-SY5Y [3]) | Activity (BV-2 [4]) | Activity (SH-SY5Y [5]) | Activity (SH-SY5Y [6]) | Activity (SH-SY5Y [7]) |
| --- | --- | --- | --- | --- | --- | --- | --- |
| Nc1nc(/C=C/CNC(=O)c2cc(Br)c[nH]2)c[nH]1 | Active | >25% | Active | Non-Toxic | Non-Toxic |  |  |
| Nc1ncc(/C=C/CNC(=O)c2cc(Br)c(Br)[nH]2)[nH]1 [OROIDIN] |  |  | Active | Non-Toxic | Non-Toxic |  |  |
| NC1=N[C@]2([C@H](O)N1)[C@@H](Cl)[C@H](CNC(=O)c1cc(Br)c(Br)[nH]1)[C@H]1CN3C(=O)c4cccn4[C@@H]4N=C(N)N[C@@]43[C@@H]12.O=C(O)C(F)(F)F.O=C(O)C(F)(F)F | Active |  |  | Non-Toxic | Non-Toxic | 35% |  |
| Nc1nc([C@H]2[C@H](CNC(=O)c3cc(Br)c(Br)[nH]3)/C(=C\CNC(=O)c3ccc[nH]3)c3cnc(N)n32)c[nH]1 |  |  |  | Non-Toxic | Non-Toxic | 35% | Active |
| C[C@]1(COC(=O)c2cc(Br)c[nH]2)C[C@@H](C(=O)O)N=CN1 [MANZACIDIN A] |  | >25% | Active | Non-Toxic | Non-Toxic |  |  |
| NC1=N[C@]2([C@H](O)N1)[C@@H](Cl)[C@H](CNC(=O)c1cc(Br)c(Br)[nH]1)[C@H]1CN3C(=O)c4[nH]ccc4[C@@H]4N=C(N)N[C@@]43[C@@H]12.O=C(O)C(F)(F)F.O=C(O)C(F)(F)F |  |  |  | Non-Toxic | Non-Toxic |  |  |
